According to patent US8822430B2 (Gilead Sciences, Inc., priority 2009, dated 2014):

system: HCV 1b RLuc cells (dicistronic genotype 1b Con1 replicon); assay: Renilla luciferase (RLuc)-based HCV replicon reporter assay; type: cell-based, HCV genotype 1b; conditions: Hepatitis C virus, 72 h, HCV 1b RLuc replicon, 72 hours; read-out: Activity (antiviral potency [EC50])
How it was run: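 EC50 values were calculated by non-linear regression of Renilla luciferase signal from lysed cells after 72 h of compound exposure. Cells harboured a genotype 1b Con1 dicistronic replicon encoding RLuc. Compounds were serially diluted in DMSO from 10 mM stocks into culture media.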

SMILES | EC50
COC(=O)N[C@H](C(=O)N1[C@@H]2CC[C@@H](C2)[C@H]1c1ncc(-c2ccc(-c3ccc4cc(-c5cnc([C@@H]6CC7(CC7)CN6C(=O)[C@@H](NC(=O)OC)C(C)OC)[nH]5)ccc4c3)cc2)[nH]1)C(C)C (some centres unmarked) | 0.0077 nM
COC(=O)N[C@H](C(=O)N1C[C@@H](C#N)C[C@H]1c1ncc(-c2ccc3c(c2)C(F)(F)c2cc(-c4ccc5nc([C@@H]6[C@H]7CC[C@H](C7)N6C(=O)[C@@H](NC(=O)OC)C(C)C)[nH]c5c4)ccc2-3)[nH]1)C(C)C | 0.0059 nM
COC(=O)N[C@H](C(=O)N1CCC[C@H]1c1ncc(-c2ccc(-c3ccc4nc([C@@H]5CCCN5C(=O)[C@@H](NC(=O)OC)C(C)C)[nH]c4c3)cc2)[nH]1)C(C)C | 0.0372 nM
COC(=O)N[C@H](C(=O)N1CCC[C@H]1c1ncc(-c2ccc(-c3ccc4cc(-c5cnc([C@@H]6CCCN6C(=O)[C@@H](NC(=O)OC)C(C)C)[nH]5)ccc4c3)cc2)[nH]1)c1ccsc1 | 0.0906 nM
COC(=O)N[C@H](C(=O)N1CCC[C@H]1c1ncc(-c2ccc3cc(-c4ccc(-c5cnc([C@@H]6CC(=O)CN6C(=O)[C@@H](NC(=O)OC)C(C)C)[nH]5)cc4)ccc3c2)[nH]1)C(C)C | 0.0103 nM
COC(=O)N[C@H](C(=O)N1CCC[C@H]1c1ncc(-c2cc3c(OC)c4sc(-c5cnc([C@@H]6CCCN6C(=O)[C@@H](NC(=O)OC)C6CCOCC6)[nH]5)cc4c(OC)c3s2)[nH]1)C1CCOCC1 | 0.419 nM
COC(=O)N[C@H](C(=O)N1CCC[C@H]1c1ncc(-c2ccc3cc(-c4ccc(-c5cnc([C@@H]6CCCN6C(=O)[C@@H](Cc6ccccc6)NC(=O)OC)[nH]5)cc4)ccc3c2)[nH]1)C(C)C | 0.858 nM
COC(=O)N[C@H](C(=O)N1CC2(CC2)C[C@H]1c1ncc(-c2ccc3cc(-c4ccc(-c5cnc([C@@H]6[C@H]7CC[C@H](C7)N6C(=O)[C@@H](NC(=O)OC)C(C)(C)C)[nH]5)cc4)ccc3c2)[nH]1)C(C)C | 0.009 nM
COC(=O)N[C@H](C(=O)N1CCC[C@H]1c1ncc(-c2ccc3cc(-c4ccc5[nH]c([C@@H]6CCN6C(=O)[C@@H](NC(=O)OC)C(C)C)nc5c4)ccc3c2)[nH]1)C(C)C | 0.026 nM
COC(=O)N[C@H](C(=O)N1CC2(CC2)C[C@H]1c1ncc(-c2ccc3cc(-c4ccc(-c5cnc([C@@H]6[C@H]7CC[C@H](C7)N6C(=O)[C@@H](NC(=O)OC)C6CCOCC6)[nH]5)cc4)ccc3c2)[nH]1)C1CCOCC1 | 0.0255 nM
COC[C@H]1C[C@@H](c2ncc(-c3ccc(-c4ccc5cc(-c6cnc([C@@H]7CC8(CC8)CN7C(=O)[C@@H](NC(=O)OC)C(C)C)[nH]6)ccc5c4)cc3)[nH]2)N(C(=O)[C@@H](NC(=O)OC)C(C)C)C1 | 0.0073 nM
COC(=O)N[C@H](C(=O)N1CCC[C@H]1c1ncc(-c2ccc3c(c2)oc2cc(-c4cnc([C@@H]5CCCN5C(=O)[C@@H](NC(=O)OC)C(C)C)[nH]4)ccc23)[nH]1)C(C)C | 0.0052 nM
COC(=O)N[C@H](C(=O)N1CCC[C@H]1c1ncc(-c2ccc(C#Cc3ccc(-c4cnc([C@H]5N(C(=O)[C@@H](NC(=O)OC)C(C)C)CSC5(C)C)[nH]4)cc3)cc2)[nH]1)C(C)C | 0.0424 nM
COC(=O)N[C@@H](C)C(=O)N1CCC[C@H]1c1ncc(-c2ccc3c(c2)sc2cc(-c4ccc5nc([C@@H]6[C@H]7CC[C@H](C7)N6C(=O)[C@H](C)NC(=O)OC)[nH]c5c4)ccc23)[nH]1 | 0.075 nM
COC(=O)N[C@H](C(=O)N1CCC[C@H]1c1ncc(-c2ccc3cc(-c4ccc(-c5cnc([C@@H]6CCCN6C(=O)[C@H](O)c6ccccc6)[nH]5)cc4)ccc3c2)[nH]1)C(C)C | 0.0097 nM
COC(=O)N[C@H](C(=O)N1CCC[C@H]1c1ncc(-c2ccc(-c3ccc(-c4cnc([C@@H]5COCCN5C(=O)[C@@H](NC(=O)OC)C(C)C)[nH]4)cc3)cc2)[nH]1)C(C)C | 0.0214 nM
COC(=O)N[C@H](C(=O)N1CCC[C@H]1c1ncc(-c2ccc3cc(-c4ccc(-c5cnc([C@@H]6C[C@H](c7ccccc7)CN6C(=O)[C@@H](NC(=O)OC)C(C)C)[nH]5)cc4)ccc3c2)[nH]1)C(C)C | 0.0189 nM
COC(=O)N[C@H](C(=O)N1CCC[C@H]1C(=O)Nc1ccc(-c2ccc(-c3ccc(-c4cnc([C@@H]5CCCN5C(=O)[C@@H](NC(=O)OC)C(C)C)[nH]4)cc3)cc2)cc1)C(C)C | 0.0875 nM
COC(=O)N[C@H](C(=O)N1CCC[C@H]1c1ncc(-c2cc3c(C)c4sc(-c5cnc([C@@H]6CCCN6C(=O)[C@@H](NC(=O)OC)C6CCOCC6)[nH]5)cc4c(C)c3s2)[nH]1)C1CCOCC1 | 0.106 nM
COC(=O)N[C@@H](C)C(=O)N1[C@@H](c2ccccc2)CC[C@H]1c1ncc(-c2ccc(-c3ccc4cc(-c5cnc([C@@H]6CCCN6C(=O)[C@@H](NC(=O)OC)C(C)C)[nH]5)ccc4c3)cc2)[nH]1 | 0.788 nM
COC(=O)N[C@@H](C)C(=O)N1[C@@H]2CC[C@@H](C2)[C@H]1c1ncc(-c2ccc(-c3ccc4cc(-c5cnc([C@@H]6CC7(CC7)CN6C(=O)[C@@H](NC(=O)OC)C(C)C)[nH]5)ccc4c3)cc2)[nH]1 | 0.0156 nM
COC(=O)N[C@H](C(=O)N1CCC[C@H]1c1ncc(-c2ccc(-c3ccc(-c4ccc5nc([C@@H]6CCCN6C(=O)[C@@H](NC(=O)OC)C(C)C)[nH]c5c4)cc3)cc2)[nH]1)C(C)C | 0.0054 nM

SMILES | EC50
COC(=O)N[C@H](C(=O)N1CCC[C@H]1c1ncc(-c2ccc3cc(-c4ccc(-c5cnc([C@@H]6C[C@H](CN(C)C)CN6C(=O)[C@@H](NC(=O)OC)C(C)C)[nH]5)cc4)ccc3c2)[nH]1)C(C)C | 0.125 nM
COC(=O)N[C@H]1CCCN(Cc2ncc(-c3ccc(-c4ccc(-c5cnc([C@@H]6CCCN6C(=O)[C@@H](NC(=O)OC)C(C)C)[nH]5)cc4)cc3)[nH]2)C1=O | 0.147 nM
COC(=O)N[C@H](C(=O)N1CCC[C@H]1c1ncc(-c2ccc(-c3ccc(-c4cnc([C@@H]5SCCN5C(=O)[C@@H](NC(=O)OC)C(C)C)[nH]4)cc3)cc2)[nH]1)C(C)C | 0.0171 nM
CC[C@H](C)[C@H](NC(=O)OC)C(=O)N1CCC[C@H]1c1ncc(C#Cc2ccc3cc(-c4cnc([C@@H]5CCCN5C(=O)[C@@H](NC(=O)OC)[C@@H](C)CC)[nH]4)ccc3c2)[nH]1 | 0.0147 nM
COC(=O)N[C@H](C(=O)N1CCC[C@H]1c1ncc(-c2ccc(-c3ccc(-c4cnc([C@@H]5[C@H]6CC[C@H](C6)N5C(=O)[C@@H](NC(=O)OC)C(C)C)[nH]4)cc3)cc2)[nH]1)C(C)C | 0.0073 nM
COC(=O)N[C@H](C(=O)N1CCC[C@H]1c1ncc(-c2ccc(C#Cc3ccc(-c4cnc([C@@H]5CN(C(=O)OC)CCN5C(=O)[C@@H](NC(=O)OC)C(C)C)[nH]4)cc3)cc2)[nH]1)C(C)C | 0.256 nM
COC(=O)N[C@H](C(=O)N1CCC[C@H]1c1ncc(-c2ccc3cc(-c4ccc5nc([C@@H]6CCCN6C(=O)[C@@H](NC(=O)OC)C(C)C)[nH]c5c4)ccc3c2)[nH]1)C(C)C | 0.0067 nM
COC(=O)N[C@H](C(=O)N1CCC[C@H]1c1ncc(-c2ccc(-c3ccc4cc(-c5cnc([C@@H]6CCCN6C(=O)[C@@H](NC(=O)OC)C(C)C)[nH]5)ccc4c3)cc2)[nH]1)c1ccccc1 | 0.0272 nM
COC(=O)N[C@H](C(=O)N1CCC[C@H]1c1ncc(-c2ccc3c(c2)CN(C)Cc2cc(-c4cnc([C@@H]5CCCN5C(=O)[C@@H](NC(=O)OC)C(C)C)[nH]4)ccc2-3)[nH]1)C(C)C | 11.1 nM
COCC[C@H](NC(=O)OC)C(=O)N1[C@@H]2CC[C@@H](C2)[C@H]1c1ncc(-c2ccc(-c3ccc4cc(-c5cnc([C@@H]6CC7(CC7)CN6C(=O)[C@@H](NC(=O)OC)C(C)C)[nH]5)ccc4c3)cc2)[nH]1 | 0.0119 nM
COC(=O)NC(C(=O)N1CC2(CC2)C[C@H]1c1ncc(-c2ccc3cc(-c4ccc(-c5cnc([C@@H]6[C@H]7CC[C@H](C7)N6C(=O)[C@@H](NC(=O)OC)C(C)C)[nH]5)cc4)ccc3c2)[nH]1)c1ccccc1 (some centres unmarked) | 0.0145 nM
COC(=O)N[C@H](C(=O)N1CCC[C@H]1c1ncc(-c2ccc3cc(-c4ccc(-c5cnc([C@@H]6[C@H]7CC[C@H](C7)N6C(=O)[C@@H](NC(=O)OC)C(C)C)[nH]5)cc4)ccc3c2)[nH]1)C(C)C | 0.006 nM
COC(=O)N[C@H](C(=O)N1CCC[C@H]1c1ncc(-c2ccc3cc(-c4ccc(-c5cnc([C@@H]6CCCN6C(=O)[C@H](NC(=O)OC)C6CCOCC6)[nH]5)cc4)ccc3c2)[nH]1)C(C)C | 0.171 nM
COC(=O)N[C@H](C(=O)N1CCC[C@H]1c1ncc(-c2ccc(-c3ccc(-c4cnc([C@@H]5CCCN5C(=O)[C@@H](NC(=O)OC)C(C)(C)S(C)(=O)=O)[nH]4)cc3)cc2)[nH]1)C(C)C | 0.161 nM
COC(=O)N[C@H](C(=O)N1CCC[C@H]1c1ncc(-c2ccc(-c3ccc(-c4cnc(CN5CCC[C@H](NC(=O)OC(C)(C)C)C5=O)[nH]4)cc3)cc2)[nH]1)C(C)C | 0.058 nM
COC(=O)N[C@H](C(=O)N1C[C@@H](Oc2cnccn2)C[C@H]1c1ncc(-c2ccc(-c3ccc4cc(-c5cnc([C@@H]6CC7(CC7)CN6C(=O)[C@@H](NC(=O)OC)C(C)C)[nH]5)ccc4c3)cc2)[nH]1)C(C)C | 0.014 nM
CC[C@H](NC(=O)OC)C(=O)N1C[C@@H](C#N)C[C@H]1c1ncc(-c2ccc3cc(-c4ccc(-c5cnc([C@@H]6CC7(CC7)CN6C(=O)[C@@H](NC(=O)OC)C(C)C)[nH]5)cc4)ccc3c2)[nH]1 | 0.0155 nM
COC(=O)N[C@H](C(=O)N1CCC[C@H]1c1ncc(-c2ccc(-c3ccc(-c4cnc([C@@H]5CCCN5C(=O)[C@@H](NC(=O)OC)C(C)C)[nH]4)c(C#N)c3)cc2)[nH]1)C(C)C | 0.0192 nM
COC(=O)N[C@H](C(=O)N1CCC[C@H]1c1ncc(-c2ccc(C#Cc3ccc(-c4cnc([C@@H]5CN(C(C)=O)CN5C(=O)[C@@H](NC(=O)OC)C(C)C)[nH]4)cc3)cc2)[nH]1)C(C)C | 0.0403 nM
COC(=O)N[C@H](C(=O)N1CCC[C@H]1C(=O)NCc1ccc(-c2ccc(-c3cnc([C@@H]4CCCN4C(=O)[C@@H](NC(=O)OC)C(C)C)[nH]3)cc2)cc1)C(C)C | 1.4 nM
COC(=O)N[C@H](C(=O)N1CC2(C[C@H]1c1ncc(-c3ccc(-c4ccc(-c5cnc([C@@H]6CC7(CN6C(=O)[C@@H](NC(=O)OC)C(C)C)OCCO7)[nH]5)cc4)cc3)[nH]1)OCCO2)C(C)C | 0.105 nM
COC(=O)N[C@H](C(=O)N1[C@@H]2CC[C@@H](C2)[C@H]1c1ncc(-c2ccc(-c3ccc4cc(-c5cnc([C@@H]6CC7(CC7)CN6C(=O)[C@H](NC(=O)OC)c6ccccc6)[nH]5)ccc4c3)cc2)[nH]1)C(C)C | 0.0394 nM
